Blank lines part the entries; values can stand above or below the molecule they belong to.
Key:
[1] = tested on: ACL collagen; test: SDS-PAGE of purified pepsin-digested collagen, ACL in high salt, low salt, neutral or low pH irradiated at -80° C. to 50 kGy (Example 10)
Experimental: This experiment was to determine whether high salt, low salt, neutral pH and low pH treated ACL will help to deliver stabilizers into ACL tissue to protect it from γ-irradiation at -80° C. with 50 kGy. 1. Prepared stock solution 2M sodium ascorbate (Spectrum […], Lot#QP0839) in water. Samples were prepared with the following: • a) DPBS • b) DPBS/200 mM sodium ascorbate • c) 0.5N HOAc • d) 0.5N HOAc/200 mM sodium ascorbate • e) 20 mM sodium phosphate pH 7.6 • f) 20 mM sodium phosphate pH 7.6/200 mM sodium ascorbate • g) 20 mM sodium phosphate pH 7.6/1M NaCl • h) 20 mM sodium phosphate pH 7.6/1M NaCl/200 mM sodium ascorbate. 2. These samples were irradiated with 0 and 50 kGy at 1.53 kGy/hr at NIST. 4. ACL were digested with pepsin and collagen purified by precipitating with salt.

[2] = tested on: type I collagen; test: SDS-PAGE of type I collagen irradiated to 45 kGy with stabilizers (Example 17); details: gamma irradiation at -20° C.
Experimental: In this experiment, type I collagen at −20° C., −80° C. or freeze-dried at 4° C. were irradiated with gamma radiation to a total dose of 45 kGy in the presence of various stabilizers.
• 1M thiourea (Sigma T8656) in water; • 0.5M coumarin (Sigma CC4261) in ethanol; • 0.5M 0-coumaric acid (Sigma C4400) in ethanol; • 0.5M curcumin (Sigma C1386) in ethanol; • 1M L-cysteine (Sigma C6852) in water; • 1M 1,3-dimethyl-2-thiourea (Aldrich 534-13-4) in water; • 1M 2-mercaptoethylamine (Sigma M6500) in water; and • 1M 1,3-dimethylurea (Sigma D6254) in water. Phosphate buffer solution of 40 mM sodium phosphate and 100 mM NaCl; pH=7.66. Methods: The following samples were prepared to a final volume of 0.5 ml: • 1 mg/ml collagen in 5 mM acetic acid (control); • 1 mg/ml collagen+0.1 M coumaric acid; • 1 mg/ml collagen+5 mM curcumin; • 1 mg/ml collagen+0.1M L-cysteine; • 1 mg/ml collagen+0.1M 1,3-dimethyl-2-thiourea; • 1 mg/ml collagen+0.1M thiourea; • 1 mg/ml collagen+0.1M 2-mercaptoethylamine; and • 1 mg/ml collagen+0.1M 1,3-dimethylurea. The samples were irradiated as follows: • freeze-dried; temperature:4.7° C.; dose rate: 1.656 kGy/hr; total dose:45 kGy; • temperature:−20.5° C.; dose rate:1.537 kGy/hr; total does:45 kGy; and • […]; dose rate:1.530-1.528 kGy/hr;45 kGy. Following irradiation, the samples were analyzed by SDS-PAGE. Additionally, the samples were diluted 1:2 with water to give collagen concentrations of 0.5 mg/ml and a turbidity assay was performed to detect collagen fibril formation. Collagen fibril formation was initiated by adding 100 μl of phosphate buffer solution. The assay was done in triplicate using a microtiter plate reader at 340 nm wavelength.

[3] = tested on: type I collagen; test: Turbidity assay of collagen fibril formation after irradiation (Example 17); type: biochemical; details: 45 kGy
Experimental: Phosphate buffer solution of 40 mM sodium phosphate and 100 mM NaCl; pH=7.66. Methods: […] Following irradiation, the samples were analyzed by SDS-PAGE. Additionally, the samples were diluted 1:2 with water to give collagen concentrations of 0.5 mg/ml and a turbidity assay was performed to detect collagen fibril formation. Collagen fibril formation was initiated by adding 100 μl of phosphate buffer solution. The assay was done in triplicate using a microtiter plate reader at 340 nm wavelength.

[4] = Experimental: • Tissue—Porcine Pulmonary Valve (PV) Heart valves were harvested prior to use and stored. • Tissue Preparation Reagents— • Polypropylene Glycol 400.
An additional 1 ml PPG was added and further water bath sonicated.
The 0.5M solution was soluble after a 20-30 minute water bath sonication.

[5] = tested on: porcine AV heart valves; test: HPLC analysis of frozen AV heart valve cusps irradiated to 30 kGy at -20° C. (Example 3); details: 1.584 kGy/hr
Experimental: In this experiment, frozen porcine AV heart valves soaked in various solvents were gamma irradiated to a total dose of 30 kGy at 1.584 kGy/hr at −20° C. 5. […] 6. Incubated tubes at 4° C. with nutating for ˜46 hours. 9. Frozen samples were then irradiated at −20° C. at a rate of 1.584 kGy/hr to a total dose of 30 kGy.

[6] = tested on: porcine ACL extractable proteins; test: Guanidine HCl extracts of freeze dried ACL irradiated to 45 kGy: SDS-PAGE, BCA assay, densitometry (Example 6); details: 45 kGy versus 0 kGy control
Experimental: Guanidine HCL extraction was done with 4 M GuHCl in 0.5 NaOAC pH 5.8 and 5 mM EDTA, 10 mM NEM, 5 mM Benzamidine and 1 mM PMSF to a final concentration of […] of extraction buffer. The samples were incubated at 4° C. on a nutator for 2 days.
A BCA assay was performed on the dialysates of the PPG+cocktail guanidine extracted samples to determine the total protein concentration in the samples.
Using BCA and SDS-PAGE on the PPG+Cocktail sample, guanidine extracts were evaluated based on SDS-PAGE of equal protein load. The protein concentrations were as follows:
Densitometry was performed on two different protein bands, as follows: […]

[7] = tested on: collagen; test: Turbidity assay of liquid and gel collagen irradiated on dry ice (Example 18); type: biochemical; details: frozen on dry ice, 48.73 to 53.38 kGy
Experimental: The samples were gamma irradiated at […] (frozen on dry ice) at dose rates of […] to a total dose of 48.73 to 53.38 kGy. The irradiated samples were analyzed by SDS-PAGE. Additionally, the samples were diluted 1:2 with water to give collagen concentrations of 0.5 mg/ml and a turbidity assay was performed to detect collagen fibril formation. Collagen fibril formation was initiated by adding 100 μl of phosphate buffer solution. The assay was done in triplicate using a microtiter plate reader at 340 nm wavelength.

[8] = tested on: ACL collagen; test: SDS-PAGE densitometry of purified pepsin-digested collagen, ACL in alcohols irradiated at -80° C. to 50 kGy (Example 11); details: 1.53 kGy/hr
Experimental: This experiment was to determine whether alcohols can protect ACL tissue samples from γ-irradiation at −80° C. with 50 kGy. 1. […] 2. These samples were then incubated with different alcohols for 2 hr in a shaking incubator at 37° C. 3. After 2 hr incubation, these ACL tubes were decanted and fresh solutions were added to each ACL containing tubes and incubated overnight at −80° C. 4. These samples were irradiated with 0 and 50 kGy at 1.53 kGy/hr at NIST. 6. ACL were digested with pepsin and collagen purified by precipitating with salt. 8. Ran 10 μg of each purified pepsin-digested collages on 4-12% gel and quantified both alpha 1 and alpha 2 chains.

[9] = tested on: ACL collagen; test: Turbidity assay of collagen isolated from ACL irradiated in alcohols (Example 11); type: biochemical; details: even at 0.5 mg/ml
Experimental: 7. Turbidity assay was performed for these collagens using at [1 mg/ml].
A turbidity assay was performed for the collagen isolated from these ACL samples. Correlation was found between the ACL collagen before and after irradiation.

[10] = tested on: Porcine Pulmonary Valve (PV) Heart valves; test: HPLC and gel analysis of heart valve cusps gamma irradiated to 30 kGy at -20° C. (Example 1); details: 1.584 kGy/hr
Experimental: In this experiment, porcine heart valves were gamma irradiated in the presence of polypropylene glycol 400 (PPG400) and, optionally, a scavenger, to a total dose of 30 kGy (1.584 kGy/hr at −20° C.).
5. 1.2 ml of PPG were added to two tubes (one of these tubes was designated 0 kGy and the other tube was designated 30 kGy): • 1.2 ml of 125 mM Trolox C in PPG were added to another two tubes • 1.2 ml of SCb stabilizer mixture—comprising of 1.5 ml 125 mM Trolox C, 300 μl 1 M Lipoic Acid, 600 μl 0.5 M Coumaric Acid and 600 μl 0.5 M n-Propyl Gallate (Final concentrations: 62.5 mM, 100 mM, 100 mM and 100 mM respectively) were added to the final two tubes.
6. Tubes were incubated at 4° C., with rocking for about 60 hours.
Samples were irradiated at a rate of 1.584 kGy/hr at −20° C. to a total dose of 30 kGy.
3. Samples were weighed, transferred to hydrolysis vials and 6 N HCl added at a volume of 20 mg tissue/ml HCl:
4. Samples were hydrolyzed at 110° C. for approximately 23 hours.

Molecule: CC(=O)O [0.5N HOAc, acetic acid]
yield of purified pepsin-digested collagen at 50 kGy ([1]; without ascorbate, -80° C.): 73%

Molecule: CNC(=O)NC [1,2-dimethylurea, 1,3-dimethylurea]
protective effect on collagen [2]: less than that observed with thiourea and 1,3-dimethyl-2-thiourea

Molecule: CNC(=S)NC [1,3-dimethyl-2-thiourea]
fibril formation after irradiation (turbidity assay) [3]: could form fibrils after irradiation | fibril formation after irradiation (turbidity assay) ([3]; irradiated at -80° C.): could form fibrils after irradiation

Molecule: NCCS [2-mercaptoethylamine]
protective effect on collagen [2]: less than that observed with thiourea and 1,3-dimethyl-2-thiourea | fibril formation after irradiation (turbidity assay) ([3]; irradiated at -80° C.): could form fibrils after irradiation

solubility of the stock solution in PPG [4]: not 100% soluble
Molecule: O=C(O)/C=C/c1ccc(O)cc1 [Coumaric Acid]

Molecule: C[S+](C)[O-] [DMSO, dimethyl sulfoxide]
HPLC analysis, preservation of peaks after irradiation ([5]; listed as 20% DMSO): reproduced these peaks more faithfully | HPLC analysis, preservation of peaks after irradiation ([5]; listed as 50% DMSO): slightly more effective

Molecule: OC[C@H]1O[C@H](O[C@H]2O[C@H](CO)[C@@H](O)[C@H](O)[C@H]2O)[C@H](O)[C@@H](O)[C@@H]1O [Trehalose, D(+)-trehalose]
protection of guanidine extractable proteins by SDS-PAGE [6]: least protection

solubility of the stock solution in PPG [4]: not soluble | soluble at (in PPG) [4]: 125 mM
Molecule: Cc1c(C)c2c(c(C)c1O)CCC(C)(C(=O)O)O2 (stereo not shown) [Trolox C, 6-hydroxy-2,5,7,8-tetramethylchroma-2 carboxylic acid]

Molecule: O=C1O[C@H]([C@@H](O)CO)C([O-])=C1O.[Na+] [ascorbate, sodium ascorbate]
protection of gel or liquid collagen (turbidity assay) [7]: most effective | yield of purified pepsin-digested collagen at 50 kGy ([1]; with ascorbate (200 mM) in 20 mM sodium phosphate pH 7.6 without salt, -80° C.): 75% | yield of purified pepsin-digested collagen at 50 kGy ([1]; with ascorbate (200 mM) in 0.5N HOAc pH 3.4, -80° C.): 83% | yield of purified pepsin-digested collagen at 50 kGy ([1]; with ascorbate (200 mM) in high salt (20 mM sodium phosphate pH 7.6/1M NaCl), -80° C.): 40% | protection of guanidine extractable proteins by SDS-PAGE [6]: most promising results

Molecule: CC(O)C(C)O (stereo not shown) [butanediol, 2,3-butanediol]
yield for 50 kGy ACL collagen based on the densitometry of alpha 1 and 2 chains [8]: 88%

Molecule: COc1cc(/C=C/C(=O)CC(=O)/C=C/c2ccc(O)c(OC)c2)ccc1O [curcumin]
protective effect on collagen [2]: less than that observed with thiourea and 1,3-dimethyl-2-thiourea

Molecule: N[C@@H](CS)C(=O)O [cysteine, L-cysteine]
protective effect on collagen [2]: less than that observed with thiourea and 1,3-dimethyl-2-thiourea | fibril formation after irradiation (turbidity assay) ([3]; irradiated at -80° C.): could form fibrils after irradiation

Molecule: C[N+](C)(C)[C@@H](Cc1c[nH]c(=S)[nH]1)C(=O)[O-] [ergothionine]
protection of guanidine extractable proteins by SDS-PAGE [6]: good protection of proteins in the lower ⅔ of the gel

Molecule: CCO [ethanol]
yield for 50 kGy ACL collagen based on the densitometry of alpha 1 and 2 chains [8]: 77% | fibril formation in turbidity assay [9]: could not form fibrils

Molecule: N[C@@H](Cc1c[nH]cn1)C(=O)O [histidine, L-histidine]
protection of guanidine extractable proteins by SDS-PAGE [6]: most promising results

solubility of the stock solution in PPG [4]: soluble
Molecule: CCCOC(=O)c1cc(O)c(O)c(O)c1 [n-Propyl Gallate]

Molecule: CC(O)CO (stereo not shown) [propanediol, 1,2-propanediol]
fibril formation in turbidity assay [9]: could not form fibrils

Molecule: polypropylene glycol 400 [PPG 400]
HPLC analysis, irradiated versus not irradiated heart valve [10]: nearly identical
